From patent US10689362B2, “Quinoxaline compounds as type III receptor tyrosine kinase inhibitors” (Development Center for Biotechnology, priority 2016, dated 2020)

Assays:
CSF-1R kinase = CSF-1R kinase (Homo sapiens (Human), UniProt P07333); test: CSF-1R kinase assay (AlphaScreen); type: biochemical; conditions: class symbol
Procedure: Inhibition of CSF-1R kinase activity by a test compound disclosed herein was estimated by AlphaScreen (PerkinElmer). […] Reactions were incubated at 30° C. for 45 min and stopped by adding 5 μL of 50 mM EDTA. Analysis of resulting product using an AlphaScreen kit, and counted with Enspire Alpha (PerkinElmer). […] The IC50 values of quinoxaline compounds of this invention against CSF-1R kinase were determined using the GraphPad Prism 5 software.

c-KIT kinase = c-KIT kinase (Homo sapiens (Human), UniProt P10721); test: c-KIT kinase assay (radiometric); type: biochemical; conditions: class symbol
Summary of the method: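 Recombinant c-Kit (20 ng) with 2 μg Poly-(Glu4:Tyr1) in MOPS pH 7.0 buffer with MgCl2/MnCl2, 10 μM ATP plus [^33P]-ATP, 4% DMSO final, 60 min at 30° C. Stopped with phosphoric acid, filter-captured and scintillation counted; IC50 from curve fit.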

FLT3 kinase = FLT3 kinase (Homo sapiens (Human), UniProt P36888); test: FLT3 kinase assay (radiometric); type: biochemical
Summary of the method: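 Recombinant FLT3 (5 ng) phosphorylating poly(Glu4:Tyr1) (2 μg) with 10 μM ATP plus [^33P]-ATP in MOPS pH 7.0 buffer, 4% DMSO final, 60 min at 30° C. Reaction stopped with phosphoric acid, filter-captured and scintillation-counted; IC50 derived from dose-response.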

PDGFRβ kinase = PDGFRβ kinase (Homo sapiens (Human), UniProt P09619); test: PDGFRβ kinase assay (radiometric); type: biochemical
Summary of the method: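 Radiometric assay: recombinant PDGFRβ with poly(Glu4:Tyr1) in MOPS pH 7.0 buffer containing Mg2+/Mn2+, 10 μM ATP plus [33P]-ATP, and compound at 4% DMSO final. Incubated 60 min at 30° C, stopped with phosphoric acid, filter-captured and scintillation-counted. IC50 from curve fitting.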

[1] = system: CSF-1-dependent M-NFS-60 mouse myeloid leukemia cell; test: M-NFS-60 cell proliferation assay (CellTiter-96); type: cell-based; conditions: Cytotoxicity, M-NFS-60 cells, 72 hours
Summary of the method: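 CSF-1-dependent M-NFS-60 cells seeded at 2000 cells/well, settled overnight at 37 °C, 5% CO2, then exposed to increasing compound concentrations for 72 h. Viability read by CellTiter 96 AQueous One reagent (4 h) at 490 nm absorbance.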

[2] = system: MV4-11 human acute myeloid leukemia cell with FLT3-ITD mutation; test: MV4-11 cell proliferation assay (CellTiter-96); type: cell-based; conditions: Cytotoxicity, MV4-11 cells, 72 hours
Summary of the method: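 MV4-11 cells (FLT3-ITD, FLT3-dependent growth) seeded at 6500 cells/well, incubated overnight at 37° C., 5% CO2, then exposed to increasing compound concentrations for 72 hours. Viability read by CellTiter96 AQueous One reagent (4 hours), absorbance at 490 nm.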

[3] = system: Kasumi-1 human acute myeloid leukemia cell with c-KIT N822K activating mutation; test: Kasumi-1 cell proliferation assay (CellTiter-96); type: cell-based; conditions: Cytotoxicity, Kasumi-1 cells, 72 hours
Summary of the method: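 Kasumi-1 cells, seeded at 64000 cells/well and incubated overnight at 37 °C, were exposed to increasing compound concentrations for 72 h. Viability was measured by CellTiter96 AQueous One reagent (4 h) and absorbance at 490 nm.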

[4] = system: THP-1 human acute monocytic leukemia cell harboring NRAS G12D mutation; test: THP-1 cell proliferation assay (counter screen, CellTiter-96); type: cell-based; conditions: Cytotoxicity, THP-1 cells (counter screen), 72 hours
Summary of the method: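 THP-1 cells, RTK-independent owing to NRAS G12D, seeded at 5000/well, incubated overnight at 37 °C/5% CO2, then exposed to increasing compound concentrations for 72 h. CellTiter96 AQueous One reagent added for 4 h; viability from absorbance at 490 nm.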

[5] = system: osteoclast precursors (osteoclast differentiation); test: Osteoclast tartrate-resistant acid phosphatase assay; type: cell-based; conditions: 168 h, at 1 μM treatment, 7 days, RANKL and M-CSF, read-out: inhibition activity against osteoclast differentiation
Procedure: A serial dilution of test compound was dispensed into a 96-well black clear bottom plate. Compound was diluted by the addition of DMEM media supplemented with 10% characterized fetal bovine serum. Diluted compound was transferred to a 96-well black clear bottom plate. Three thousand osteoclast precursors (Lonza, Walkersville, Md.) were added per well in growth medium containing Receptor Activator of Nuclear Factor Kappa-beta ligand (RANKL) and M-CSF. […] At the end of the incubation period, 50 μL of supernatant from each well was transferred to a clear 96-well plate. Tartrate-resistant acid phosphatase activity in the supernatant samples was determined using an acid phosphatase assay kit (Sigma, St. Louis, Mo.). Absorbance was measured at 550 nm using a plate reader. […] The Inhibition activity against osteoclast differentiation for each compound at 1 μM treatment in duplicate was measured.

Sequence of CSF-1R kinase (P07333 20-972): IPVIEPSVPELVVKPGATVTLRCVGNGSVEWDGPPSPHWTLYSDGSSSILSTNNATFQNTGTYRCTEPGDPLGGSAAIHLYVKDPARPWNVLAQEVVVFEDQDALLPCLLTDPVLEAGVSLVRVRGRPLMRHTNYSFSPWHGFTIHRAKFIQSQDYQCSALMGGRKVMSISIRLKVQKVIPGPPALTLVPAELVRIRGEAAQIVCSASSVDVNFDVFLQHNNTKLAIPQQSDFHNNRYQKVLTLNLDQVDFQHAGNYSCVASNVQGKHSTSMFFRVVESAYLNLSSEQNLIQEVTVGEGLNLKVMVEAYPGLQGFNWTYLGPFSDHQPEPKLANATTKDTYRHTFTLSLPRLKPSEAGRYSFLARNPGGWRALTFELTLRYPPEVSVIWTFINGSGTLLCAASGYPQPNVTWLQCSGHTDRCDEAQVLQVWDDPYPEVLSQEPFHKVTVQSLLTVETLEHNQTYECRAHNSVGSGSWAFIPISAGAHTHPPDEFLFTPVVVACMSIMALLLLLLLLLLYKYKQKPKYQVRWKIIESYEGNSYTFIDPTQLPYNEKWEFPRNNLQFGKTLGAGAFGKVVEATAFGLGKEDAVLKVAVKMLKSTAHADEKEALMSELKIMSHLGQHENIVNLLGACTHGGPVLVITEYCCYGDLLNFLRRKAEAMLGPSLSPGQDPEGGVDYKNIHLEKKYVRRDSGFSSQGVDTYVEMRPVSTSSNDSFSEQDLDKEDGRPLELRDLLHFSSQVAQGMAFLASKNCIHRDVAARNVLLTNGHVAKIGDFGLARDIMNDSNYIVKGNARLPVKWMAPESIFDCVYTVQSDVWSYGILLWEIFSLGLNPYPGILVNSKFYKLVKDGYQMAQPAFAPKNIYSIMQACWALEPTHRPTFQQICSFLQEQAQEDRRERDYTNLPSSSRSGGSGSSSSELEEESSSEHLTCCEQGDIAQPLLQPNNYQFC
Sequence of FLT3 kinase (P36888 27-993): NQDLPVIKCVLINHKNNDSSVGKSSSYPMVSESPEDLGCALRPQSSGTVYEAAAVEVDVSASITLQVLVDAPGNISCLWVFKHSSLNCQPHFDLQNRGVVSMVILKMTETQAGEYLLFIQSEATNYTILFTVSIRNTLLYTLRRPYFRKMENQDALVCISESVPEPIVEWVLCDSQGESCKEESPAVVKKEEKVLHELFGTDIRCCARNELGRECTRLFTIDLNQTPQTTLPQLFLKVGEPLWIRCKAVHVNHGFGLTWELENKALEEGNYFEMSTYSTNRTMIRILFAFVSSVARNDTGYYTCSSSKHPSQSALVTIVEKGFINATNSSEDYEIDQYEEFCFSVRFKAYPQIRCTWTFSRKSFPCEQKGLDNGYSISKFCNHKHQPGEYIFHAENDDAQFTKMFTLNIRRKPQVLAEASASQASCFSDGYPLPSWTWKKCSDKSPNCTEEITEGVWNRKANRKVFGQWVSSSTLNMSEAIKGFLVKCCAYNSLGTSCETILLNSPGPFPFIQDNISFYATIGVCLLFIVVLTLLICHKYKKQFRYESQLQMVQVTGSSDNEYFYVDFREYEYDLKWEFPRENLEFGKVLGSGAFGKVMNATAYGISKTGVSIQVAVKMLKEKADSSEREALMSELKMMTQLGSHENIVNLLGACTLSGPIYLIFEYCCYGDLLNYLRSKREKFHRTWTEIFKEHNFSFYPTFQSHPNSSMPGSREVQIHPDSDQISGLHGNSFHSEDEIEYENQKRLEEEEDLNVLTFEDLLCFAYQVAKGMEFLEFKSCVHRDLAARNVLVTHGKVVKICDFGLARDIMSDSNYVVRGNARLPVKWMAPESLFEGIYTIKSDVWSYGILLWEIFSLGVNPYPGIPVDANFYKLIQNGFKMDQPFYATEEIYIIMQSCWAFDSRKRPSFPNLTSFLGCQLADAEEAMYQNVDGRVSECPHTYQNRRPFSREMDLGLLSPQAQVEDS
Sequence of c-KIT kinase (P10721 26-976): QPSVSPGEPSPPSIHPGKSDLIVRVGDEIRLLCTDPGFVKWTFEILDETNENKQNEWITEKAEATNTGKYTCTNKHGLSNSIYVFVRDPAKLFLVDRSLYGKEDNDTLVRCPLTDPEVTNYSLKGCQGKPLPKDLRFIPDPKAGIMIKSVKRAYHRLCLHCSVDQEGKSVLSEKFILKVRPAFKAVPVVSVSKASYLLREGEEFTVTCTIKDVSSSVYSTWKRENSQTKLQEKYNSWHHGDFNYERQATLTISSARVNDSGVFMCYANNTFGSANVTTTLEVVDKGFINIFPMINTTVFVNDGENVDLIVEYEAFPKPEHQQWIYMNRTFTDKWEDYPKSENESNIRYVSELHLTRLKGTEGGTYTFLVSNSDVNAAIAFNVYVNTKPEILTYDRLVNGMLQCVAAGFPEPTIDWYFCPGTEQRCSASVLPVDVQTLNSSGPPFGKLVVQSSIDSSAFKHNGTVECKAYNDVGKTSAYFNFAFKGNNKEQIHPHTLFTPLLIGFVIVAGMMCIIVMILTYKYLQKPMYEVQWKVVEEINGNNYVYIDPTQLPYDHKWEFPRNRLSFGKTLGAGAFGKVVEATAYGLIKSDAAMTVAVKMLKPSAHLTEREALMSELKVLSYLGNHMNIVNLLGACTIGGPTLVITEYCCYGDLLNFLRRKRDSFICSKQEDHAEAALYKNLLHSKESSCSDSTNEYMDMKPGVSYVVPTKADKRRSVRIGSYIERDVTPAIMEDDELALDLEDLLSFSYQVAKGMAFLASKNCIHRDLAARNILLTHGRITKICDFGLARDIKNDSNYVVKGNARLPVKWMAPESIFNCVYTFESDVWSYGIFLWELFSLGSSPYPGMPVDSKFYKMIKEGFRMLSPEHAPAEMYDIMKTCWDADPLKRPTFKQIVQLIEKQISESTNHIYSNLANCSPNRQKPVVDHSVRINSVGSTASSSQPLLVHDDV
Sequence of PDGFRβ kinase (P09619 33-1106): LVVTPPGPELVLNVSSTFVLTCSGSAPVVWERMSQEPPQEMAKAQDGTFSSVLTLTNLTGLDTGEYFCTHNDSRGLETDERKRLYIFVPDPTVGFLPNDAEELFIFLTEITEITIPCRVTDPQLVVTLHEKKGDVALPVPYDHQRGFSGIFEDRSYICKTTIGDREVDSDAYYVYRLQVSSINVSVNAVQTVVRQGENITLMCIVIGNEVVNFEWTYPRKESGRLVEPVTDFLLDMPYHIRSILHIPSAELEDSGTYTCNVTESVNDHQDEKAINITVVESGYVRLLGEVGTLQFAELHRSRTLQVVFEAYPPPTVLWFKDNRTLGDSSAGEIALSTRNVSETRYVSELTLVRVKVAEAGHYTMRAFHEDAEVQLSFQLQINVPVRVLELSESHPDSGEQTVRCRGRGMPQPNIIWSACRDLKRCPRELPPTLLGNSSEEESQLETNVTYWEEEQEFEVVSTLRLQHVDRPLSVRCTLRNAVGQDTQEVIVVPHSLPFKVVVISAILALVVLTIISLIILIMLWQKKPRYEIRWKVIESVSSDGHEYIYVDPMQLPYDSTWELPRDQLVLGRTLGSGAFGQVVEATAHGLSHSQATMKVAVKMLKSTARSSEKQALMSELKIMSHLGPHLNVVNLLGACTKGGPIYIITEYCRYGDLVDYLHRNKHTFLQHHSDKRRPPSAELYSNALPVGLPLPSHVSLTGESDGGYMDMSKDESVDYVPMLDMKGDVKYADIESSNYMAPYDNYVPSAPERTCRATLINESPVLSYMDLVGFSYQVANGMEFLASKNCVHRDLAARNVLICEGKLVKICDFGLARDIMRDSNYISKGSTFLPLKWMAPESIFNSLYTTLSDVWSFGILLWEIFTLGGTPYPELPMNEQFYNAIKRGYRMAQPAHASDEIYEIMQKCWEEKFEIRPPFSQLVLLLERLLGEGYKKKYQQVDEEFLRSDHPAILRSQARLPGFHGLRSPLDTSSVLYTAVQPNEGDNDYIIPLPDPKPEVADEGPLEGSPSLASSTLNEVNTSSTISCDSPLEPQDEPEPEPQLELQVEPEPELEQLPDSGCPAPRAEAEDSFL

SMILES | IC50 (CSF-1R kinase) [µM] | IC50 (c-KIT kinase) [µM] | IC50 (FLT3 kinase; bound) [µM] | IC50 (PDGFRβ kinase; bound) [µM] | IC50 (FLT3 kinase; class symbol) [µM] | IC50 (PDGFRβ kinase; class symbol) [µM] | IC50 [1] [µM] | IC50 [2] [µM] | IC50 [3] [µM] | IC50 [4] [µM] | inhibition at 1 µM [5] [%]
COc1ccc(COc2ccc(Nc3ccc4ncc(N5CCOCC5)nc4c3C#N)c(F)c2)cc1 [Example 53, 6-((2-fluoro-4-((4-methoxybenzyl)oxy)phenyl)amino)-3-morpholinoquinoxaline-5-carbonitrile] | < 0.1 | 0.3 to 1 | – | > 1 | 0.3 to 1 | – | 0.3 to 1 | < 0.3 | 1 to 10 | > 10 | > 50
COc1ccc(COc2ccc(Nc3ccc4ncc(N5CCNCC5)nc4c3C#N)cc2OC)cn1 [Example 59, 6-((3-methoxy-4-((6-methoxypyridin-3-yl)methoxy)phenyl)amino)-3-(piperazin-1-yl)quinoxaline-5-carbonitrile] | < 0.1 | 0.1 to 0.3 | > 1 | > 1 | – | – | < 0.3 | 1 to 10 | 0.3 to 1 | 1 to 10 | > 50
COc1ccc(COc2ccc(N(C)c3ccc4ncc(N5CCOCC5)nc4c3C#N)cc2OC)cc1 [Example 60, 6-((3-methoxy-4-((4-methoxybenzyl)oxy)phenyl)(methyl)amino)-3-morpholinoquinoxaline-5-carbonitrile] | < 0.1 | 0.3 to 1 | > 1 | > 1 | – | – | < 0.3 | 1 to 10 | 1 to 10 | > 10 | > 50
COc1ccc(COc2ccc(Nc3ccc4ncc(N5CCN(CCO)CC5)nc4c3C#N)cc2OC)cc1 [Example 66, 3-(4-(2-hydroxyethyl)piperazin-1-yl)-6-((3-methoxy-4-((4-methoxybenzyl)oxy)phenyl)amino)quinoxaline-5-carbonitrile] | < 0.1 | < 0.1 | > 1 | – | – | 0.3 to 1 | < 0.3 | 1 to 10 | < 0.3 | > 10 | > 50
COc1cc(Nc2ccc3ncc(N4CCNCC4)nc3c2C#N)ccc1OCc1ccc(C)nc1 [Example 67, 6-((3-methoxy-4-((6-methylpyridin-3-yl)methoxy)phenyl)amino)-3-(piperazin-1-yl)quinoxaline-5-carbonitrile] | < 0.1 | < 0.1 | > 1 | > 1 | – | – | < 0.3 | 1 to 10 | 1 to 10 | 1 to 10 | > 50
COc1ccc(COc2ccc(Nc3ccc4ncc(N5CCC(OC(C)=O)CC5)nc4c3C#N)cc2OC)cc1 [Example 68, 1-(8-cyano-7-((3-methoxy-4-((4-methoxybenzyl)oxy)phenyl)amino)quinoxalin-2-yl)piperidin-4-yl acetate] | < 0.1 | < 0.1 | > 1 | > 1 | – | – | < 0.3 | 1 to 10 | < 0.3 | > 10 | > 50

The next lines start with results.

IC50 (CSF-1R kinase) [µM] | IC50 (c-KIT kinase) [µM] | IC50 (FLT3 kinase; bound) [µM] | IC50 (PDGFRβ kinase; bound) [µM] | IC50 (FLT3 kinase; class symbol) [µM] | IC50 (PDGFRβ kinase; class symbol) [µM] | SMILES | IC50 [1] [µM] | IC50 [2] [µM] | IC50 [3] [µM] | IC50 [4] [µM] | inhibition at 1 µM [5] [%]
< 0.1 | < 0.1 | > 1 | > 1 | – | – | COc1cc(Nc2ccc3ncc(N4CCOCC4)nc3c2C#N)ccc1OCc1ccc(Cl)cc1 [Example 49, 6-((4-((4-chlorobenzyl)oxy)-3-methoxyphenyl)amino)-3-morpholinoquinoxaline-5-carbonitrile] | < 0.3 | 1 to 10 | 0.3 to 1 | > 10 | > 50
< 0.1 | 0.1 to 0.3 | > 1 | > 1 | – | – | COc1ccc(COc2ccc(Nc3ccc4ncc(N5CCOCC5)nc4c3C#N)cc2OC)cn1 [Example 50, 6-((3-methoxy-4-((6-methoxypyridin-3-yl)methoxy)phenyl)amino)-3-morpholinoquinoxaline-5-carbonitrile] | < 0.3 | > 10 | 0.3 to 1 | > 10 | > 50
< 0.1 | 0.1 to 0.3 | – | > 1 | 0.3 to 1 | – | COc1ccc(COc2ccc(Nc3ccc4ncc(N5CCOCC5)nc4c3C#N)cn2)cc1 [Example 52, 6-((6-((4-methoxybenzyl)oxy)pyridin-3-yl)amino)-3-morpholinoquinoxaline-5-carbonitrile] | 0.3 to 1 | < 0.3 | 0.3 to 1 | > 10 | > 50
< 0.1 | 0.1 to 0.3 | > 1 | > 1 | – | – | COc1ccc(COc2ccc(Nc3ccc4ncc(N5CCOCC5)nc4c3C#N)cc2F)cc1 [Example 56, 6-((3-fluoro-4-((4-methoxybenzyl)oxy)phenyl)amino)-3-morpholinoquinoxaline-5-carbonitrile] | 0.3 to 1 | 0.3 to 1 | 1 to 10 | > 10 | > 50
< 0.1 | < 0.1 | > 1 | – | – | 0.3 to 1 | COc1ccc(COc2ccc(Nc3ccc4ncc(N5CCOCC5)nc4c3C#N)cc2OC)cc1OC [Example 58, 6-((4-((3,4-dimethoxybenzyl)oxy)-3-methoxyphenyl)amino)-3-morpholinoquinoxaline-5-carbonitrile] | < 0.3 | > 10 | < 0.3 | > 10 | > 50
< 0.1 | < 0.1 | > 1 | – | – | 0.3 to 1 | COc1ccc(COc2ccc(Nc3ccc4ncc(N5CCCC5)nc4c3C#N)cc2OC)cc1 [Example 62, 6-((3-methoxy-4-((4-methoxybenzyl)oxy)phenyl)amino)-3-(pyrrolidin-1-yl)quinoxaline-5-carbonitrile] | < 0.3 | > 10 | < 0.3 | > 10 | > 50
< 0.1 | < 0.1 | > 1 | > 1 | – | – | COc1cc(Nc2ccc3ncc(N4CCOCC4)nc3c2C#N)ccc1OCc1ccc(C#N)cc1 [Example 64, 6-((4-((4-cyanobenzyl)oxy)-3-methoxyphenyl)amino)-3-morpholinoquinoxaline-5-carbonitrile] | < 0.3 | 1 to 10 | 0.3 to 1 | > 10 | > 50
< 0.1 | 0.1 to 0.3 | > 1 | > 1 | – | – | COc1cc(Nc2ccc3ncc(N4CCOCC4)nc3c2C#N)ccc1OCc1cccc(C#N)c1 [Example 65, 6-((4-((3-cyanobenzyl)oxy)-3-methoxyphenyl)amino)-3-morpholinoquinoxaline-5-carbonitrile] | < 0.3 | > 10 | > 10 | > 10 | > 50
